# Data taken from publication PMC12067741, “Inhibition of SOD1 trimerization is a novel drug target for ALS disease” (Translational Neurodegeneration, 2025).
# “Also recorded” adds a separate entry of the source. Like-named read-outs stand apart in the source and are kept apart here.
# Experiments:
# [1] = mouse, in vivo, iv, 1 mg/kg
# [2] = BBB-PAMPA (parallel artificial membrane permeability assay); conditions: PAMPA, 4 hour, 10 µM
# Description: Next, we checked the basic in vitro ADME test including pharmacokinetics, plasma protein binding, CYP (Cytochrome P450) inhibition, metabolic stability and blood–brain barrier (BBB) permeability. […] We also plan to test safety panel assay in the future to obtain safety data for the drug.
# Fig. S8. […]
# misfolded MT-SOD1 = experiment: Dot blot with misfolded SOD1-specific antibody; assay type: cell-based; conditions: 24 h treatment
# Description: To detect misfolded SOD1 expression, cells transfected with SOD1 vectors were treated with PRG-A-04 for 24 h. After incubation, cells were lysed with […] NN buffer (50 mmol/L Tris–Cl, pH 7.5, 150 mmol/L NaCl, 0.3% NP-40), and then cell lysates were immobilized on nitrocellulose membrane using the Bio-Dot SF Microfiltration apparatus (Bio-Rad Laboratories, Hercules, CA). The membrane was washed with TBS and blocked by 5% BSA to remove background for 1 h. After blocking, the membrane was incubated with antibody for misfolded SOD1 (1:2000) or actin (1:10,000 in 1% skim milk containing TBST) for 30 min, then reacted with secondary antibody (goat anti-mouse IgG-horseradish peroxidase, 1:50,000 in 1% skim milk blocking buffer) for 30 min. Proteins were detected with ECL and X-ray film exposure. Actin was used as the loading control.
# SOD1-G147P = target: T1, SOD1-G147P (Homo sapiens, UniProt P00441, G148P); experiment: SOD1 oligomerization induced by trimer stabilizer overexpression; assay type: cell-based
# T1 construct: expressed in transfected cells
# Description: For SDS-PAGE, proteins were extracted from cells with the RIPA buffer (50 mmol/L Tris–Cl, pH 7.5, 150 mmol/L NaCl, 1% NP-40, 0.1% SDS and […]). To detect the oligomer status, the cells were harvested with the TNNI buffer (50 mmol/L Tris–Cl, pH 7.5, 150 mmol/L NaCl, 0.3% NP-40, 100 mmol/L iodoacetamide, protease inhibitor cocktails) and reacted with 0.04% glutaraldehyde (Glu) for 30 min, and then SDS-PAGE was performed using the pan-SOD1 antibody. Samples were separated via SDS-PAGE and transferred to PVDF membrane. Blotted membranes were blocked by 3% skim milk containing TBST buffer for 1 h and incubated with specific antibodies. The following primary antibodies were used: pan-SOD1 (GTX100554) from Genetex (Irvine, CA); misfolded SOD1-specific antibody (B8H10) from MediMabs (Montreal, Canada); Actin (sc-1616), GST (sc-138), and GFP (Green fluorescent protein; sc-8036) antibodies from Santa Cruz Biotechnology (Santa Cruz, CA); TDP-43 antibody (10782–2-AP) from Proteintech (Rosemont, IL); anti-FLAG (Sigma; F3165) from Sigma-Aldrich (St. Louis, MO). HRP-conjugated goat anti-mouse, goat anti-rabbit and mouse anti-goat antibodies (Pierce, Thermo Fisher Scientific, Inc., Rockford, IL) were used as secondary antibodies. The blots were detected using an ECL assay (Advansta) and images were acquired using the […] ImageQuant 800 (Cytiva) system and an X-Ray film detector. […]
# CYP 3A = experiment: CYP inhibition (direct)
# Description: Fig. S8. Preclinical data of PRG-A-04 a Plasma protein binding b CYP inhibition(direct) […]
# d Mouse Brain Tissue penetration
# For the convenience of calculation, […]
# [3] = Metabolic stability in liver microsomes; assay type: in vitro ADME; conditions: cynomolgus monkey liver microsomes
# T1 sequence (P00441 whole entry G148P): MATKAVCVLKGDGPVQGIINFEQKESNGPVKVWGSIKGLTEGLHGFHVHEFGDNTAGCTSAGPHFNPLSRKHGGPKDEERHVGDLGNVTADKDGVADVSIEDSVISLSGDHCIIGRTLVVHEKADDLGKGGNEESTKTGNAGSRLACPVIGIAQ
smiles,measurement,setting,value
COc1cc(C=CCOC2Cc3cc4ccc(=O)oc4cc3OC2(C)C)ccc1[N+](=O)[O-] (stereo not shown) [PRG-A-04],AUC0-inf,[1],1857.00 ng·h/mL
same,AUC0-last,[1],1826.50 ng·h/mL
same,C0 (or) Cmax,[1],1272.33 ng/mL
same,T1/2,[1],4.12 h
same,Mean Pe,[2],0.418 ×10⁻⁶ cm/s
same,effect on misfolding SOD1,misfolded MT-SOD1,reduction in misfolding SOD1
same,effect on SOD1 oligomerization caused by trimer-stabilizing mutant,SOD1-G147P,reduced the SOD1 oligomerization
same,IC50,CYP 3A,> 10 µM
same,IC50,"CYP 3A; read-out: IC50, DI, CYP 3A(midazolam), direct inhibition",> 10 µM
same,extent of metabolism in liver microsomes,[3],moderately metabolized; also recorded: metabolized significantly
